Article PMC8270334, “Design, Sustainable Synthesis and Biological Evaluation of a Novel Dual α2A/5-HT7 Receptor Antagonist with Antidepressant-Like Properties” (Molecules, 2021)

System: Albino Swiss mice
Assay: forced swim test
Type: in vivo
Details: ip, 30 min before test
Protocol: Adult male Albino Swiss mice (CD-1, 8 weeks old, 25–30 g: Jagiellonian University Medical College, Krakow, Poland) were used in the study. Animals were housed in groups of 8 in a transparent plastic cage (382 × 220 × 150 mm) at room temperature (22 ± 2 °C), on a 12 h light/dark cycle with ad libitum access to food and water. Mice were handled for one week before starting the experimental procedures. The separate groups of animals were used in the forced swim test and in the locomotor studies. All studies were approved by the Institutional Animal Care and Ethics Committee of the Jagiellonian University (approval no.: 80/2015). […] Tested compounds were dissolved with 1% Tween 80. […] The control animals were given ip injections of the 2% DMSO in 1% Tween 80 (vehicle). The volume of vehicle or drug solutions was 10 mL/kg. The experiment was performed on mice according to the method previously described. Mice were forced to swim individually in the glass cylinders (height 25 cm, diameter 10 cm) filled with water at 24 ± 1 °C to a depth of 10 cm and left there for 6 min. Following a 2 min habituation period, total time spent immobile was recorded over the next 4 min. The animal was regarded as immobile when it remained floating passively in the water, making only small movements to keep its head above the water.

Row | Structure (SMILES) | active dose in FST (antidepressant-like effect)
1 | CN1CCN2c3ncccc3Cc3ccccc3C2C1 (centres unmarked) [Mirtazapine, reference compound] | 16 mg/kg

Molecular target: T1, human 5-HT7b receptor (Homo sapiens, UniProt P34969)
T1 construct: expressed in transfected cells; host or cells: HEK293
T1 sequence (P34969 1-432): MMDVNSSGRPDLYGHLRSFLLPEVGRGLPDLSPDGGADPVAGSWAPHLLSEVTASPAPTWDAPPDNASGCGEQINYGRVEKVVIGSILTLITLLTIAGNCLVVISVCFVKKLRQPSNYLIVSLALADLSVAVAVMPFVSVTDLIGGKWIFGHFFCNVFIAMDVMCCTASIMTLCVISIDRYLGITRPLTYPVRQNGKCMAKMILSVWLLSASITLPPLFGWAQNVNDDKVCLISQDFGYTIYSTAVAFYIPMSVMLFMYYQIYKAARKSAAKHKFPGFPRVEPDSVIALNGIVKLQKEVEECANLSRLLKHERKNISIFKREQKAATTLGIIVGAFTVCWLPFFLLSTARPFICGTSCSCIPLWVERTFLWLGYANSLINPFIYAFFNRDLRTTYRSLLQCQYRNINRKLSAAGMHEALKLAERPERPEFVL
Assay: not given
Details: Figure 1, earlier lead; read-out: Ki (5-HT7R); cited from earlier work

Row | Structure (SMILES) | Ki
2 | CC(C)Oc1ccccc1OCCN1CCC(NS(=O)(=O)c2ccc(F)cc2)CC1 [PZ-971] | 21 nM

Molecular target: T1, human 5-HT7b receptor
Assay: radioligand binding, [3H]-5-CT displacement at 5-HT7R in HEK293 cells
Details: read-out: Ki [nM] ± SEM 5-HT7
Protocol: All experiments were performed using HEK293 cells stably expressing human 5-HT1A, 5-HT6, 5-HT7b, and D2L receptors or CHO-K1 cells with a plasmid containing the human 5-HT2A receptor coding sequence (PerkinElmer, Waltham, MA, USA), according to previously reported procedures. Cells were cultured in 150 cm^2 flasks and, after reaching a 90% confluence, were washed with PBS and the centrifugated (200 g) in PBS containing 0.1 mM EDTA and 1 mM dithiothreitol. Cell pellets were subsequently homogenized (in Ultra Turrax tissue homogenizer) and centrifugated twice (35,000× g for 15 min at 4 °C), with 15 min incubation at 37 °C between the centrifugations. All assays were incubated in dedicated buffers and in a total volume of 200 µL in 96-well microtitre plates for 1 h at 37 °C, except for 5-HT1AR and 5-HT2AR that was incubated for 1 h at room temperature. The process of equilibration is terminated by rapid filtration through Unifilter-96 (PerkinElmer) plates with a 96-well cell harvester and radioactivity retained on the filters was quantified on a Microbeta plate reader (PerkinElmer, USA). For displacement studies, the following assay samples containing the proper radioligand were used: 2.5 nM [^3H]-8-OH-DPAT (PerkinElmer, #NET929001MC) for 5-HT1AR; 1 nM [^3H]-ketanserin (PerkinElmer, #NET791250UC) for 5-HT2AR; 2 nM [^3H]-LSD (PerkinElmer, #NET638250UC) for 5-HT6R; and 0.8 nM [^3H]-5-CT (PerkinElmer, #NET1188U100UC) for 5-HT7R or 2.5 nM [^3H]-raclopride (PerkinElmer, #NET975001MC) for D2LR. Non-specific binding was determined using 10 μM 5-HT for 5-HT1AR and 5-HT7R, 20 μM mianserin for 5-HT2AR, 10 μM methiothepine for 5-HT6R, and 10 μM haloperidol for D2LR. […] Results were expressed as means of at least three separate experiments.

Row | Ki | Structure (SMILES)
3 | 64 ± 15 nM | CC1(C)Cc2cccc(OCCN3CCC(NS(=O)(=O)c4cccc(Cl)c4)CC3)c2O1 [Compound 7, 3-Chloro-N-{1-[2-(2,2-dimethyl-2,3-dihydrobenzofuran-7-yloxy)ethyl]piperidin-4-yl}benzenesulfonamide]
4 | 86 ± 26 nM | COc1ccc(Cl)cc1S(=O)(=O)NC1CCN(CCOc2cccc3c2OC(C)(C)C3)CC1 [Compound 9, 5-Chloro-2-methoxy-N-{1-[2-(2,2-dimethyl-2,3-dihydrobenzofuran-7-yloxy)ethyl]piperidin-4-yl}benzenesulfonamide]
5 | 95 ± 18 nM | COc1ccc(OC)c(S(=O)(=O)NC2CCN(CCOc3cccc4c3OC(C)(C)C4)CC2)c1 [Compound 10, 2,5-Dimethoxy-N-{1-[2-(2,2-dimethyl-2,3-dihydrobenzofuran-7-yloxy)ethy]piperidin-4-yl}benzenesulfonamide]
6 | 50 ± 16 nM | CC1(C)Cc2cccc(OCCN3CCC(NS(=O)(=O)c4cccc5ccccc45)CC3)c2O1 [Compound 11, 1-Naphthalene-N-{1-[2-(2,2-dimethyl-2,3-dihydrobenzofuran-7-yloxy)ethyl]piperidin-4-yl}sulfonamide]
7 | 67 ± 21 nM | CC1(C)Cc2cccc(OCCN3CCC(NS(=O)(=O)c4ccc5ccccc5c4)CC3)c2O1 [Compound 12, 2-Naphthalene-N-{1-[2-(2,2-dimethyl-2,3-dihydrobenzofuran-7-yloxy)ethyl]piperidin-4-yl}sulfonamide]
8 | 727 ± 65 nM | CC1(C)Cc2cccc(OCCN3CCC(CNS(=O)(=O)c4ccc(F)cc4)CC3)c2O1 [Compound 14, 4-Fluoro-N-({1-[2-(2,2-dimethyl-2,3-dihydrobenzofuran-7-yloxy)ethyl]piperidin-4-yl}methyl)benzenesulfonamide]
9 | 664 ± 82 nM | CC1(C)Cc2cccc(OCCN3CCC(CNS(=O)(=O)c4cccc(Cl)c4)CC3)c2O1 [Compound 15, 3-Chloro-N-({1-[2-(2,2-dimethyl-2,3-dihydrobenzofuran-7-yloxy)ethyl]piperidin-4-yl}methyl)benzenesulfonamide]
10 | 316 ± 73 nM | CC1(C)Cc2cccc(OCCN3CCC(CNS(=O)(=O)c4cc(Cl)ccc4F)CC3)c2O1 [Compound 16]
11 | 488 ± 70 nM | COc1ccc(Cl)cc1S(=O)(=O)NCC1CCN(CCOc2cccc3c2OC(C)(C)C3)CC1 [Compound 17, 5-Chloro-2-methoxy-N-({1-[2-(2,2-dimethyl-2,3-dihydrobenzofuran-7-yloxy)ethyl]piperidin-4-yl}methyl)benzenesulfonamide]
12 | 366 ± 69 nM | CC1(C)Cc2cccc(OCCN3CCC(CNS(=O)(=O)c4cccc5ccccc45)CC3)c2O1 [Compound 18, 1-Naphthalene-N-({1-[2-(2,2-dimethyl-2,3-dihydrobenzofuran-7-yloxy)ethyl]piperidin-4-yl}methyl)sulfonamide]
13 | 387 ± 58 nM | CC1(C)Cc2cccc(OCCN3CCC(CNS(=O)(=O)c4cncc5ccccc45)CC3)c2O1 [Compound 19, 4-Isoquinoline-N-({1-[2-(2,2-dimethyl-2,3-dihydrobenzofuran-7-yloxy)ethyl]piperidin-4-yl}methyl)sulfonamide]

System: Albino Swiss mice
Assay: spontaneous locomotor activity
Type: in vivo
Details: ip, doses effective in the FST (6: 4, 8 mg/kg; mirtazapine: 16 mg/kg)
Protocol: Adult male Albino Swiss mice (CD-1, 8 weeks old, 25–30 g: Jagiellonian University Medical College, Krakow, Poland) were used in the study. Animals were housed in groups of 8 in a transparent plastic cage (382 × 220 × 150 mm) at room temperature (22 ± 2 °C), on a 12 h light/dark cycle with ad libitum access to food and water. Mice were handled for one week before starting the experimental procedures. The separate groups of animals were used in the forced swim test and in the locomotor studies. All studies were approved by the Institutional Animal Care and Ethics Committee of the Jagiellonian University (approval no.: 80/2015).
Tested compounds were dissolved with 1% Tween 80. […] The control animals were given ip injections of the 2% DMSO in 1% Tween 80 (vehicle). The volume of vehicle or drug solutions was 10 mL/kg.
Locomotor activity was recorded with an Opto M3 multichannel activity monitor, photoresistor actometers connected to a counter for the recording of light-beam interruptions (MultiDevice Software v1.3, Columbus Instruments, Columbus, OH, USA). The mice, after being placed into the cages individually, had their activity evaluated between the 2nd and the 6th minute. The chosen time period corresponded with the time interval considered in the FST. Spontaneous locomotor activity was evaluated as the distance travelled plus the movements of climbing by animals.

Row | Structure (SMILES) | influence on spontaneous locomotor activity (sedation)
14 | CN1CCN2c3ncccc3Cc3ccccc3C2C1 (centres unmarked) [Mirtazapine, reference compound] | induced sedation
